{"source": "patent US10919843B2", "about": "“Cannabidiol derivatives as inhibitors of the HIF prolyl hydroxylases activity” (priority 2017, dated 2021)", "key": {"[1]": {"system": "HIF-1α", "assay": "HIF-1α transactivation assay in NIH-3T3-EPO-Luc cells", "assay_type": "cell-based", "settings": "for EC50: read-out: Potency EC50 HIF-1α; for Efficacy HIF-1α (IRA coefficient): relative to 150 μM DFX", "protocol": "(§1) To investigate the biological activities of the different compounds, HIF-1α transactivation assays were performed either in NIH-3T3-EPO-Luc cells (Table 1) or in HaCaT-EPO-luc cells (Table 2). The NIH3T3-EPO-luc and HaCaT-EPO-luc cells have been stably transfected with the plasmid Epo-Luc plasmid. The EPO-Hypoxia Response Element (HRE)-luciferase reporter plasmid contains three copies of the HRE consensus sequence from the promoter of the erythropoietin gene fused to the luciferase gene.\nNIH3T3-EPO-luc cells were maintained at 37° C. in a humidified atmosphere containing 5% CO2 in DMEM supplemented with 10% fetal calf serum (FBS), and 1% (v/v) penicillin/streptomycin. Deferoxamine (DFX) was purchased from Sigma-Aldrich (USA). Cells (1×10^4/well in 96-well plates) were seeded the day before the assay. The next day, the cells were stimulated with increasing concentrations of either Cannabidiol (CBD), VCE-004 or compounds II to X. After six hours of stimulation the cells were lysed in 25 mM Tris-phosphate pH 7.8, 8 mM MgCl2, 1 mM DTT, 1% Triton X-100, and 7% glycerol during 15 min at RT in a horizontal shaker. Luciferase activity was measured using a microplate luminometer (Berthold) following the instructions of the luciferase assay kit (Promega, Madison. Wis., USA).\n(§2) HaCaT-EPO-Luc cells were maintained at 37° C. in a humidified atmosphere containing 5% CO2 in DMEM supplemented with 10% fetal calf serum (FBS), and 1% (v/v) penicillin/streptomycin. The cells (1×10^5/well in 24-well plates) were seeded the day before the assay and then stimulated with increasing concentrations of either Cannabidiol (CBD), VCE-004 or compounds II to X. After six hours of stimulation the cells were lysed in 25 mM Tris-phosphate pH 7.8, 8 mM MgCi2, 1 mM DTT, 1% Triton X-100, and 7% glycerol during 15 min at RT in a horizontal shake. Luciferase activity was measured in the cell lysates as indicated for NIH3T3-EPO-Luc cells. The RLUs are calculated and the EC50 and IRA (Intrinsic relative activity) values in both cell lines were determined relative to 150 μM deferoxamine (DFX) using the following equation: IRA coefficient=(EC50-DFX×Emax)/(EC50×Emax-DFX), where EC50 and Emax denote EC50 and Emax of the agonist, and EC50-DFX and Emax-DFX denote EC50 and Emax values of the standard agonist DFX (Table 1 and 2)."}, "[2]": {"system": "HIF-1α", "assay": "HIF-1α transactivation assay in HaCaT-EPO-luc cells", "assay_type": "cell-based", "settings": "for EC50: read-out: Potency EC50 HIF-1α; for Efficacy HIF-1α (IRA coefficient): relative to 150 μM DFX", "protocol": "as §1, §2"}, "[3]": {"settings": "NIH-3T3-EPO-Luc cells, 6 h stimulation"}, "[4]": {"settings": "HaCaT-EPO-Luc cells, 6 h stimulation"}}}
{"compound": "C=C(C)[C@@H]1CCC(C)=C[C@H]1C1=C(O)C(=O)C(CCCCC)=C(NCc2ccccc2)C1=O", "note": "[Compound VIII]", "values": [{"measurement": "EC50", "setting": "[1]; 6 h", "value": 2600, "unit": "nM"}, {"measurement": "EC50", "setting": "[2]; 6 h", "value": 1400, "unit": "nM"}]}
{"compound": "C=C(C)[C@@H]1CCC(C)=C[C@H]1C1=C(O)C(=O)C(CCCCC)=C(NCC)C1=O", "note": "[II]", "values": [{"measurement": "EC50", "setting": "[1]; 6 h", "value": 4300, "unit": "nM"}, {"measurement": "Efficacy HIF-1α (IRA coefficient)", "setting": "[1]; [3]", "value": 0.46}, {"measurement": "EC50", "setting": "[2]; 6 h", "value": 3200, "unit": "nM"}, {"measurement": "Efficacy HIF-1α (IRA coefficient)", "setting": "[2]; [4]", "value": 3.87}]}
{"compound": "C=C(C)[C@@H]1CCC(C)=C[C@H]1C1=C(O)C(=O)C(CCCCC)=C(NCC(C)(C)C)C1=O", "note": "[IX]", "values": [{"measurement": "EC50", "setting": "[1]; 6 h", "value": 2500, "unit": "nM"}, {"measurement": "EC50", "setting": "[2]; 6 h", "value": 1400, "unit": "nM"}]}
{"compound": "C=C(C)[C@@H]1CCC(C)=C[C@H]1C1=C(O)C(=O)C(CCCCC)=C(NCCC(C)C)C1=O", "note": "[X]", "values": [{"measurement": "Efficacy HIF-1α (IRA coefficient)", "setting": "[1]; [3]", "value": 0.29}, {"measurement": "EC50", "setting": "[1]; [3]", "value": 3300, "unit": "nM"}, {"measurement": "Efficacy HIF-1α (IRA coefficient)", "setting": "[2]; [4]", "value": 10.35}, {"measurement": "EC50", "setting": "[2]; [4]", "value": 1200, "unit": "nM"}]}
{"compound": "C=C(C)[C@@H]1CCC(C)=C[C@H]1C1=C(O)C(=O)C(CCCCC)=C(NCCCCC)C1=O", "note": "[III]", "values": [{"measurement": "EC50", "setting": "[1]; 6 h", "value": 3600, "unit": "nM"}, {"measurement": "Efficacy HIF-1α (IRA coefficient)", "setting": "[1]; [3]", "value": 0.28}, {"measurement": "Efficacy HIF-1α (IRA coefficient)", "setting": "[2]; [4]", "value": 5.84}, {"measurement": "EC50", "setting": "[2]; [4]", "value": 1700, "unit": "nM"}]}
{"compound": "C=C(C)[C@@H]1CCC(C)=C[C@H]1C1=C(O)C(=O)C(CCCCC)=C(NCCC(C)C)C1=O", "note": "[IX]", "values": [{"measurement": "Efficacy HIF-1α (IRA coefficient)", "setting": "[1]; [3]", "value": 0.8}, {"measurement": "Efficacy HIF-1α (IRA coefficient)", "setting": "[2]; [4]", "value": 8.64}]}
{"compound": "C=C(C)[C@@H]1CCC(C)=C[C@H]1C1=C(O)C(=O)C(CCCCC)=C(NCCCC)C1=O", "note": "[Compound V]", "values": [{"measurement": "EC50", "setting": "[1]; 6 h", "value": 1800, "unit": "nM"}, {"measurement": "Efficacy HIF-1α (IRA coefficient)", "setting": "[1]; [3]", "value": 0.85}, {"measurement": "EC50", "setting": "[2]; 6 h", "value": 1900, "unit": "nM"}, {"measurement": "Efficacy HIF-1α (IRA coefficient)", "setting": "[2]; [4]", "value": 5.01}]}
{"compound": "C=C(C)[C@@H]1CCC(C)=C[C@H]1C1=C(O)C(=O)C(CCCCC)=C(NC(C)C)C1=O", "note": "[Compound VII]", "values": [{"measurement": "EC50", "setting": "[1]; 6 h", "value": 2900, "unit": "nM"}, {"measurement": "Efficacy HIF-1α (IRA coefficient)", "setting": "[1]; [3]", "value": 0.68}, {"measurement": "EC50", "setting": "[2]; 6 h", "value": 5500, "unit": "nM"}, {"measurement": "Efficacy HIF-1α (IRA coefficient)", "setting": "[2]; [4]", "value": 2.3}]}
{"compound": "C=C(C)[C@@H]1CCC(C)=C[C@H]1C1=C(O)C(=O)C(CCCCC)=C(NC)C1=O", "note": "[Compound VI]", "values": [{"measurement": "EC50", "setting": "[1]; 6 h", "value": 2800, "unit": "nM"}, {"measurement": "Efficacy HIF-1α (IRA coefficient)", "setting": "[1]; [3]", "value": 0.61}, {"measurement": "EC50", "setting": "[2]; 6 h", "value": 4000, "unit": "nM"}, {"measurement": "Efficacy HIF-1α (IRA coefficient)", "setting": "[2]; [4]", "value": 3.02}]}
{"compound": "C=C(C)[C@@H]1CCC(C)=C[C@H]1C1=C(O)C(=O)C(CCCCC)=C(NCC(C)C)C1=O", "note": "[IV]", "values": [{"measurement": "EC50", "setting": "[1]; 6 h", "value": 3200, "unit": "nM"}, {"measurement": "Efficacy HIF-1α (IRA coefficient)", "setting": "[1]; [3]", "value": 0.61}, {"measurement": "EC50", "setting": "[2]; 6 h", "value": 1600, "unit": "nM"}, {"measurement": "Efficacy HIF-1α (IRA coefficient)", "setting": "[2]; [4]", "value": 5.64}]}
